From US20220289719A1, “HETEROCYCLIC COMPOUNDS AS MNK INHIBITORS” (NANJING INNOCARE PHARMA TECH CO., LTD., priority 2017, published 2022)
Structures can show the parent of a compound that is named as a salt.

target: T1, Human recombinant full-length MNK1 protein (Homo sapiens, UniProt Q9BUB5); assay: MNK1 inhibitory activity assay (ADP-Glo in vitro kinase assay); type: biochemical; details: 10 concentration points
T1 construct: Human recombinant full-length MNK1 protein; purchased Thermo PR9138A
T1 sequence (Q9BUB5 whole entry): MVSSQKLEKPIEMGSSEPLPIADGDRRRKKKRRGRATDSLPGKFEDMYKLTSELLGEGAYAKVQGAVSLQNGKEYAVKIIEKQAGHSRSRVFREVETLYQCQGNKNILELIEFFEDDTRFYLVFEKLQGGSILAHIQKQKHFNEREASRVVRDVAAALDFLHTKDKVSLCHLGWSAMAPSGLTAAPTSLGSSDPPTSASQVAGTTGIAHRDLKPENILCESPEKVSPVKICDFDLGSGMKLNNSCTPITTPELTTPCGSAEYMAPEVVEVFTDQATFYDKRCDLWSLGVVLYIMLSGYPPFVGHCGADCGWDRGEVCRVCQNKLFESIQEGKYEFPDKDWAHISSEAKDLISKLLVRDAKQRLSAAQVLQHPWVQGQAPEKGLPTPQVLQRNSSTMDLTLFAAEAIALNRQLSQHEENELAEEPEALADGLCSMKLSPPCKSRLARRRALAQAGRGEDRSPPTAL
Description: MNK1 Inhibitory Activity Assay: Evaluation of the effects of compounds of the invention on […] (MNK1) activity using in vitro kinase assays. The experimental methods are summarized as follows: The in vitro activity of MNK1 was determined by measuring the level of ADP produced in the kinase reaction using the ADP-Glo Kinase Assay Kit. The reaction buffer consisted of the following components: 50 mM HEPES, pH 7.5, 10 mM MgCl2, 1 mM EGTA, 0.01% Brij35. Human recombinant full-length MNK1 protein (Thermo, Cat. No. PR9138A) was diluted with a reaction buffer to a 3.13 ng/uL kinase solution. The substrate reaction solution consisted of a substrate diluted to 0.75 mg/ml in reaction buffer ([…], available from […] Domestic Company), 2250 uM ATP, the ADP-Glo reagent and kinase assay solution from Promega kit (Promega, V9102). […] If the compound IC50 value is very low, the initial concentration of the compound can be lowered. To a 384-well assay plate (Thermo, Cat. No. 264706) were added 1 uL of compound solution and 2 uL of MNK1 kinase solution. The mixture was mixed well and incubated for 30 minutes at room temperature; then 2 uL of substrate reaction solution was added, the reaction mixture was incubated for 120 minutes at room temperature. The reaction was terminated after an equal volume of 5uLADP-Glo solution was added, and the remaining ATP was completely consumed. After mixing for 60 minutes at room temperature, 10 ul of the kinase assay solution was added, and the mixture was uniformly mixed, and allowed to stand at room temperature for 40 minutes in the dark. The detection solution converts ADP into new ATP through coupled luciferase/luciferin, and ATP is converted into optical signal by Ultr-GloTM luciferase, which can be detected by Envision. The intensity of the light signal is proportional correlated with the amount of ADP produced in the kinase reaction, therefore, the activity of MNK1 kinase can be determined. In this experiment, the group without protein was used as a negative control (100% inhibition). The group with protein but without compounds was used as a positive control (0% inhibition).

| Structure (SMILES) | IC50 |
| --- | --- |
| COc1cc2[nH]ncc2cc1Nc1ncnc(N)c1C#N [Compound 42, 5-((6-Amino-5-cyanopyrimidin-4-yl)amino)-6-methoxy-1H-indazole] | 600 nM |
| COc1cc2c(cnn2C(=O)OC(C)(C)C)cc1Nc1ncnc(N)c1-c1ccccn1 [Compound 43] | 264 nM |
| COc1cc2[nH]ncc2cc1Nc1ncnc(N)c1-c1ccccn1 [Compound 44, 5-((6-amino-5-(pyridin-2-yl)pyrimidin-4-yl)amino-6-methoxy-1H-indazole formate] | 1000 nM |
| COc1cc2[nH]ncc2cc1Nc1ncnc(NC(=O)C2CC2)c1C [Compound 48, 5-((6-(Cyclopropionamido)-5-methylpyrimidin-4-yl)amino)-6-methoxy-1H-indazole] | 187 nM |
| COc1cc2[nH]ncc2cc1Nc1cc(NS(=O)(=O)C2CC2)ncn1 [Compound 49, 5-((6-(Cyclopropanesulfonylamino)pyrimidin-4-yl)amino)-6-methoxy-1H-indazole] | 1050 nM |
| COc1nc2[nH]ncc2cc1Nc1cc(NC(C)=O)ncn1 [Compound 50, 5-(6-(Acetamido)pyrimidin-4-yl) amino)-6-methoxy-1H-pyrazolo [3,4-b] pyridine formate] | 254 nM |
| COc1cc(Nc2cc3cn[nH]c3cc2OC)ncn1 [Compound 51, 5-(6-Methoxypyrimidin-4-yl) amino)-6-methoxy-1H-indazole formate] | 197 nM |
| COc1cc2[nH]ncc2cc1Nc1ncncc1OCCN1CCOCC1 [Compound 55, 5-(5-(2-(4-Morpholine)ethoxy)pyrimidin-4-yl) amino)-6-methoxy-1H-indazole formate] | 187 nM |
| COc1cc2[nH]ncc2cc1Nc1ncncc1Nc1ccccc1 [Compound 57, 5-(5-Anilinopyrimidin-4-yl) amino)-6-methoxy-1H-indazole formate] | 323 nM |
| COc1cc2[nH]ncc2cc1Nc1ncnc2c1ncn2C [Compound 59, N-(6-Methoxy-1H-indazol-5-yl)-9-methyl-9H-purin-6-amine] | 432 nM |
| COc1cc2c(cc1Nc1cc(NC(=O)C3CC3)ncn1)ncn2C(=O)OC(C)(C)C [Compound 60, 1-tert-butoxycarbonyl-5-(6-cyclopropionamidopyrimidin-4-ylamino)-6-methoxybenzimidazole] | 792 nM |
| COc1cc2ncn(C(=O)OC(C)(C)C)c2cc1Nc1cc(NC(=O)C2CC2)ncn1 [Compound 61, 3-tert-butoxycarbonyl-5-(6-cyclopropionamidopyrimidin-4-ylamino)-6-methoxybenzimidazole] | 594 nM |
| COc1cc2[nH]ncc2cc1Nc1ncncc1-c1nc2cccc(N3CCN[C@@H](C)C3)c2n1C [Compound 64, 6-Methoxy-N-(4-{1-methyl-7-[(3S)-3-methylpiperazin-1-yl]-1H-benzimidazol-2-yl}pyrimidine-5-)-1H-indazol-5-amine] | 437 nM |
| COc1cc2[nH]ncc2cc1Nc1cc(-n2ccnc2)ncn1 [Compound 65, N-(6-(1H-Imidazol-1-yl)pyrimidin-4-yl)-6-methoxy-1H-indazol-5-amine formate] | 694 nM |
| COc1c(Nc2cc(NC(=O)C3CC3)ncn2)ccc2c1C(C)(C)N(C)C2=O [Compound 73, 5-((6-(Cyclopropionamido)pyrimidin-4-yl)amino)-4-methoxy-2,3,3-trimethylisoindole-1-one] | 188 nM |
| COc1c(Nc2ncncc2OCCN2CCOCC2)ccc2c1CNC2=O [Compound 76, 5-((5-(2-(4-morpholin)ethoxy)pyrimidin-4-yl)amino)-4-methoxyisodihydroindol-1-one formate] | 572 nM |
| COc1c(Nc2ncncc2OCCN(C)C)ccc2c1CNC2=O [Compound 77, 5-((5-(2-(Dimethylamino)ethoxy)pyrimidin-4-yl)amino)-4-methoxyisodihydroindole-1-one dicarboxylate] | 900 nM |
| CNc1cncnc1Nc1ccc2c(c1OC)CNC2=O [Compound 82, 5-((5-Methylaminopyrimidin-4-yl)amino)-4-methoxyisodihydroindole-1-one formate] | 154 nM |

Now those with a lower IC50, led by results:

| IC50 | Structure (SMILES) |
| --- | --- |
| 128 nM | COc1c(N)ncnc1Nc1ccc2c(c1OC)CNC2=O [Compound 71, 5-((6-Amino-5-methoxypyrimidin-4-yl)amino)-4-methoxyisoindolin-1-one] |
| 103 nM | COc1c(Nc2ncnc3[nH]ncc23)ccc2c1CNC2=O [Compound 81, 5-((1H-Pyrazolo[3,4-d]pyrimidin-4-yl)amino)-4-methoxyisoindolin-1-one] |
| 97.1 nM | COc1cn2nccc2cc1Nc1cc(NC(=O)C2CC2)ncn1 [Compound 63, N-(6-((6-Methoxypyrazolo[1,5-a]pyridin-5-yl)amino)pyrimidin-4-yl)cyclopropanecarboxamide] |
| 96.6 nM | COc1c(Nc2cc(Nc3ncccc3Cl)ncn2)ccc2c1CNC2=O [Compound 83, 5-((6-((3-Chloropyridin-2-yl)amino)pyrimidin-4-yl)amino)-4-methoxyisoindolin-1-one] |
| 79.1 nM | COc1cc2[nH]ncc2cc1Nc1ncnc(N)c1C [Compound 47, 5-((6-Amino-5-methylpyrimidin-4-yl)amino)-6-methoxy-1H-indazole] |
| 75.3 nM | CNc1cncnc1Nc1cc2cn[nH]c2cc1OC [Compound 62, 5-(5-Methylaminopyrimidin-4-yl) amino)-6-methoxy-1H-indazole formate] |
| 49.4 nM | COc1cc2[nH]ncc2cc1Nc1ncnc(N)c1OC [Compound 46, 5-((6-Amino-5-methoxypyrimidin-4-yl)amino)-6-methoxy-1H-indazole] |
| 38.5 nM | COc1c(Nc2cc(N)ncn2)ccc2c1CNC2=O [Compound 66, 5-((6-Aminopyrimidin-4-yl)amino)-4-methoxyisoindolin-1-one hydrochloride] |
| 38.4 nM | COc1cncnc1Nc1ccc2c(c1OC)CNC2=O [Compound 74, 5-((5-Methoxypyrimidin-4-yl)amino)-4-methoxyisodihydroindole-1-one] |
| 35.3 nM | COc1cc2[nH]ncc2cc1Nc1ncnc(N)c1F [Compound 45, 5-((6-Amino-5-fluoropyrimidin-4-yl)amino)-6-methoxy-1H-indazole] |
| 34.4 nM | COCCOc1cncnc1Nc1ccc2c(c1OC)CNC2=O [Compound 75, 5-((5-(2-Methoxyethoxy)pyrimidin-4-yl)amino)-4-methoxyisodihydroindole-1-one] |
| 34.3 nM | COc1cc2[nH]ncc2cc1Nc1ncncc1OCCO [Compound 54, 5-(5-(2-Hydroxyethoxy)pyrimidin-4-yl) amino)-6-methoxy-1H-indazole formate] |
| 30.5 nM | COc1c(Nc2cc(NC(=O)C3CC3)ncn2)ccc2c1CN(C)C2=O [Compound 72, 5-((6-(Cyclopropionamido)pyrimidin-4-yl)amino)-4-methoxy-2-methylisodihydroindol-1-one] |
| 27.3 nM | COc1c(Nc2cc(Nc3ncccn3)ncn2)ccc2c1CNC2=O [Compound 69, 5-((6-(Pyrimidin-2-ylamino)pyrimidin-4-yl)amino)-4-methoxyisodihydroindol-1-one] |
| 22.8 nM | COCCOc1cncnc1Nc1cc2cn[nH]c2cc1OC [Compound 53] |
| 20.9 nM | COc1c(Nc2ncnc3[nH]ccc23)ccc2c1CNC2=O [Compound 79, 5-((7H-Pyrrolo[2,3-d]pyrimidin-4-yl)amino)-4-methoxyisoindolin-1-one] |
| 19.8 nM | CCOc1cncnc1Nc1cc2cn[nH]c2cc1OC [Compound 56, 5-(5-Ethoxypyrimidin-4-yl) amino)-6-methoxy-1H-indazole formate] |
| 19.7 nM | COc1c(Nc2ncncc2OCCO)ccc2c1CNC2=O [Compound 78, 5-((5-(2-Hydroxyethoxy)pyrimidin-4-yl)amino)-4-methoxyisoindolin-1-one] |
| 18.5 nM | COc1c(Nc2cc(Nc3cccc(Cl)n3)ncn2)ccc2c1CNC2=O [Compound 86, 5-((6-((6-Chloropyridin-2-yl)amino)pyrimidin-4-yl)amino)-4-methoxyisoindolin-1-one] |
| 17 nM | COc1c(Nc2cc(Nc3ccncn3)ncn2)ccc2c1CNC2=O [Compound 70, 5-((6-(Pyrimidin-4-ylamino)pyrimidin-4-yl)amino)-4-methoxyisodihydroindol-1-one] |
| 14.4 nM | COc1cc2[nH]ncc2cc1Nc1ncncc1OC [Compound 52] |
| 13.9 nM | COc1c(Nc2cc(Nc3ccc(Cl)cn3)ncn2)ccc2c1CNC2=O [Compound 85, 5-((6-((5-Chloropyridin-2-yl)amino)pyrimidin-4-yl)amino)-4-methoxyisoindolin-1-one] |
| 11.7 nM | COc1c(Nc2ncnc3[nH]cnc23)ccc2c1CNC2=O [Compound 80, 5-((9H-Purin-6-yl)amino)-4-methoxyisoindolin-1-one] |
| 6.1 nM | COc1cc2[nH]ncc2cc1Nc1ncnc2[nH]cnc12 [Compound 58, N-(6-Methoxy-1H-indazol-5-yl)-purin-6-amine] |
